Target: T1, Microsomal triglyceride transfer protein large subunit (Homo sapiens) (UniProt P55157)
T1 sequence (whole entry): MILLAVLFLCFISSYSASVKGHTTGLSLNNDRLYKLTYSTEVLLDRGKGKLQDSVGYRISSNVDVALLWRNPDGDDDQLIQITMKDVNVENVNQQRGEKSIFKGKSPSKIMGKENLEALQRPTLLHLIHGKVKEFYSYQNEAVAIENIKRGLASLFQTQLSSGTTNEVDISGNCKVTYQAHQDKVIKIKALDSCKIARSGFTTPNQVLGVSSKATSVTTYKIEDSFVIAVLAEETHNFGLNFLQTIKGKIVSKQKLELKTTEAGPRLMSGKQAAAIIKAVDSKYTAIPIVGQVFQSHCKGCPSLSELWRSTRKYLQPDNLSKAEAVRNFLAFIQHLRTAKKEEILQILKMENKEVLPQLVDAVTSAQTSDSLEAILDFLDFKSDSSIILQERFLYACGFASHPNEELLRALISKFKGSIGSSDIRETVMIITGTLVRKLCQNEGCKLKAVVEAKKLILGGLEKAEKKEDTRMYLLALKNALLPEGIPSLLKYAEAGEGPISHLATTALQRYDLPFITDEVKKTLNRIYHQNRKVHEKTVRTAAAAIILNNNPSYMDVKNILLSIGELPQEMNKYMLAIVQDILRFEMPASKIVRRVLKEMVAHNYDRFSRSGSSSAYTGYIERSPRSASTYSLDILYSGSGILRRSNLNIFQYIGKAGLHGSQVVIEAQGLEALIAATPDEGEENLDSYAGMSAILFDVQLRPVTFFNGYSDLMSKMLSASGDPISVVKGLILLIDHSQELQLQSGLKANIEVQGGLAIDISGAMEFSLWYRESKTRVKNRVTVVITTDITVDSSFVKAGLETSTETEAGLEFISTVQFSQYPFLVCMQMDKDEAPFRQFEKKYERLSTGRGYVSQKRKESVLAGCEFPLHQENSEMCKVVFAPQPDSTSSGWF
Experiment: Inhibition of intestinal MTP in rat by murine gut retention assay
Type: functional
Conditions: target entry is the homologue from another species

Row | Structure (SMILES) | ED25
1 | O=C(N[C@H](C(=O)N1CCCC1)c1ccccc1)c1ccc(NC(=O)c2ccccc2-c2ccc(C(F)(F)F)cc2)nc1 | 6.93 mg/kg
2 | Cc1cc(C(=O)N[C@H](C(=O)N2CCCC2)c2ccccc2)ccc1NC(=O)c1ccccc1-c1ccc(C(F)(F)F)cc1 | 3 mg/kg
